# Test results reported in patent publication US20100305159A1, “CRYSTALLINE FORM OF PIPERIDINE COMPOUND” (MITSUBISHI TANABE PHARMA CORPORATION, priority 2007, published 2010).
# Entries after “also recorded” stand apart in the source; their conditions may differ.
# Key:
# [1] = Stability at 40° C./75% RH in a glass bottle with an open state for 4 weeks; type: physicochemical
# Method: Stabilities of crystalline forms of Type I, Type II and Type VII, and amorphous of (2R,4S)-1-{N-(3,5-bistri-fluoromethylbenzyl)-N-methyl}aminocarbonyl-2-(4-fluoro-2-methylphenyl)-4-(2-hydroxyethylaminocarboxyloxy)piperidine were observed under the conditions of at 40° C./75% RH in a glass bottle with an open state for 4 weeks. […] Accordingly, improvement in stability according to crystallization could be confirmed.
# [2] = biological target: T1, human neurokinin-1 receptor (Homo sapiens, UniProt P25103); assay: Neurokinin-1 (NK1) receptor binding inhibitory action, [3H](Sar9, Met11(O2)) Substance P on IM-9 cells
# T1 construct: Human lymphoblastoma IM-9 cells (5 10^6 cell/tube) were reacted with 0.3 nM; endogenous in cells; host or cells: human lymphoblastoma IM-9 cells
# T1 sequence (P25103 whole entry): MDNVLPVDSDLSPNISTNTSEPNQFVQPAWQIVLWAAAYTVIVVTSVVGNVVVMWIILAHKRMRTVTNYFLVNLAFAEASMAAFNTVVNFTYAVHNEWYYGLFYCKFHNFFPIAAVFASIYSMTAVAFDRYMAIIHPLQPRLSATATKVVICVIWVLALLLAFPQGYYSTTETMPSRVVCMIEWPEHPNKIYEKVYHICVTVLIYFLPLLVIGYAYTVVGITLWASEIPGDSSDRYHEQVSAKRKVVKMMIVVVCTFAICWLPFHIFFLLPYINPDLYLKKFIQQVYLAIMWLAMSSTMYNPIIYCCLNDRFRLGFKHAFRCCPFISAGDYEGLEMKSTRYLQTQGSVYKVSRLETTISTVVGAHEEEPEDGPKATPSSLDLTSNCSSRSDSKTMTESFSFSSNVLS
# Description: Measurements on the crystalline form of the present invention can be carried out, for example, according to the method described in European Journal of Pharmacology, vol. 254, pages 221-227 (1994) with respect to a neurokinin-1 receptor binding action, and according to the method described in European Journal of Pharmacology, vol. 265, pages 179-183 (1994) with respect to an action against a neurokinin-1 receptor […] inducing action, further according to the method described in Journal of Urology, vol.
# Device: Dynamic Vapor Sorption device DVS-1 manufactured by Surface Measurement Systems, UK Amount of specimen: 10 mg Measured temperature: 25° C. Relative humidity range: 0 to 90% Experimental example 1 Neurokinin-1 (NK1) receptor binding inhibitory action Human lymphoblastoma IM-9 cells (5 10^6 cell/tube) were reacted with 0.3 nM [^3H] (Sar^9, Met^11 (O2)) Substance P and the prepared Type II crystalline form of (2R,4S)-1-{N-(3,5-bistrifluoromethylbenzyl)-N-methyl}aminocarbonyl-2-(4-fluoro-2-methylphenyl)-4-(2-hydroxyethylaminocarboxyloxy)-piperidine in 0.5 ml of 50 mM Tris-HCl (pH 7.4, 25° C.) containing 150 mM NaCl, 3 mM MnCl2, 40 μg/ml bacitracin, 4 μg/ml Leupeptin, 4 μg/ml Chymostatin, 4 μg/ml Phosphoramidon and 0.02% bovine serum albumin at room temperature for 60 minutes according to the method described in European Journal of Pharmacology, vol. 254, pp. 221-227 (1994). The reaction mixture was subjected to suction filtration with a GF/C glass filter which had previously been treated with 0.3% polyethyleneimine, washed with 0.3 ml of ice-cold reaction buffer containing no bovine serum albumin and various kinds of protein decomposition enzyme inhibitors twice, and radioactivity (dpm) on the filter was measured by a liquid scintillation counter. A specific binding amount was obtained by subtracting non-specific binding amount (L-703606 (10 μM) having NK1 receptor antagonistic action) from a total binding amount.
# [3] = Hygroscopicity by Dynamic Vapor Sorption; type: physicochemical; settings: DVS-1, 25° C., relative humidity range 0 to 90%, 10 mg
# Method: With regard to Type I and Type II crystalline forms of (2R,4S)-1-{N-(3,5-bistrifluoromethylbenzyl)-N-methyl}-aminocarbonyl-2-(4-fluoro-2-methylphenyl)-4-(2-hydroxy-ethylaminocarboxyloxy)piperidine, hygroscopicity was measured according to the following mentioned conditions.
# Device: Dynamic Vapor Sorption device DVS-1 manufactured by Surface Measurement Systems, UK Amount of specimen: 10 mg Measured temperature: 25° C. Relative humidity range: 0 to 90% Experimental example 1 Neurokinin-1 (NK1) receptor binding inhibitory action Human lymphoblastoma IM-9 cells (5 10^6 cell/tube) were reacted with 0.3 nM [^3H] […] The reaction mixture was subjected to suction filtration with a GF/C glass filter which had previously been treated with 0.3% polyethyleneimine, washed with 0.3 ml of ice-cold reaction buffer containing no bovine serum albumin and various kinds of protein decomposition enzyme inhibitors twice, and radioactivity (dpm) on the filter was measured by a liquid scintillation counter. […]
change in appearance [1],moisture absorption [1],"IC50 ([2]; Human lymphoblastoma IM-9 cells, 0.3 nM [3H](Sar9, Met11(O2)) Substance P, room temperature 60 minutes, read-out: IC50 value, NK1 receptor binding inhibition)","Ki ([2]; Human lymphoblastoma IM-9 cells, 0.3 nM [3H](Sar9, Met11(O2)) Substance P, room temperature 60 minutes, read-out: Ki value, NK1 receptor binding inhibition)",hygroscopicity (change in weight under high humidity conditions) [3],Compound,"neurokinin-1 receptor binding action (in words) ([2]; human NK1 receptor, IM-9 cells)"
no change in appearance,–,4.59 nM,2.22 nM,no hygroscopicity,"Cc1cc(F)ccc1[C@H]1C[C@@H](OC(=O)NCCO)CCN1C(=O)N(C)Cc1cc(C(F)(F)F)cc(C(F)(F)F)c1 [Type II, (2R,4S)-1-{N-(3,5-bistrifluoromethylbenzyl)-N-methyl}aminocarbonyl-2-(4-fluoro-2-methylphenyl)-4-(2-hydroxyethylaminocarbonyloxy)piperidine]",inhibited said Substance P with concentration-dependently; also recorded: showed a human neurokinin-1 receptor binding action with concentration-dependently
no change in appearance,–,–,–,–,"Cc1cc(F)ccc1[C@H]1C[C@@H](OC(=O)NCCO)CCN1C(=O)N(C)Cc1cc(C(F)(F)F)cc(C(F)(F)F)c1 [Type VII, (2R,4S)-1-{N-(3,5-bistrifluoromethylbenzyl)-N-methyl}aminocarbonyl-2-(4-fluoro-2-methylphenyl)-4-(2-hydroxyethylaminocarbonyloxy)piperidine]",–
no change in appearance,–,–,–,no hygroscopicity,"Cc1cc(F)ccc1[C@H]1C[C@@H](OC(=O)NCCO)CCN1C(=O)N(C)Cc1cc(C(F)(F)F)cc(C(F)(F)F)c1 [Type I, (2R,4S)-1-{N-(3,5-bistrifluoromethylbenzyl)-N-methyl}aminocarbonyl-2-(4-fluoro-2-methylphenyl)-4-(2-hydroxyethylaminocarbonyloxy)piperidine]",–

Compound,change in appearance [1],moisture absorption [1],"IC50 ([2]; Human lymphoblastoma IM-9 cells, 0.3 nM [3H](Sar9, Met11(O2)) Substance P, room temperature 60 minutes, read-out: IC50 value, NK1 receptor binding inhibition)","Ki ([2]; Human lymphoblastoma IM-9 cells, 0.3 nM [3H](Sar9, Met11(O2)) Substance P, room temperature 60 minutes, read-out: Ki value, NK1 receptor binding inhibition)",hygroscopicity (change in weight under high humidity conditions) [3],"neurokinin-1 receptor binding action (in words) ([2]; human NK1 receptor, IM-9 cells)"
"Cc1cc(F)ccc1[C@H]1C[C@@H](OC(=O)NCCO)CCN1C(=O)N(C)Cc1cc(C(F)(F)F)cc(C(F)(F)F)c1 [amorphous, (2R,4S)-1-{N-(3,5-bistrifluoromethylbenzyl)-N-methyl}aminocarbonyl-2-(4-fluoro-2-methylphenyl)-4-(2-hydroxyethylaminocarbonyloxy)piperidine]",marked change in appearance (white powder→white lump),moisture absorption was admitted,–,–,–,–
